# Reference: ChEMBL document CHEMBL3044795, “Synthesis and biological evaluation of novel benzoquinones as potential antimicrobial agents” (2013)
# Assays:
# Type in all cases: functional
# Candida albicans [1] = assay: Antifungal activity against Candida albicans DSM 70014 assessed as growth inhibition after 48 hr by two-fold serial dilution method; details: DSM 70014, 48 h
# Candida albicans [2] = assay: Antifungal activity against Candida albicans DSM 70014 assessed as growth inhibition after 48 hr; details: DSM 70014, 48 h
# Escherichia coli [3] = assay: Antibacterial activity against Escherichia coli ATCC 11775 assessed as growth inhibition after 24 hr; details: ATCC 11775, 24 h
# Candida albicans [4] = assay: Antifungal activity against Candida albicans DSM 70014 assessed as diamater of growth inhibition zone after 48 hr by agar cup diffusion method; further: test concentration or dose not given here
# Pseudomonas aeruginosa [5] = assay: Antibacterial activity against Pseudomonas aeruginosa ATCC 10145 assessed as growth inhibition after 24 hr by two-fold serial dilution method; details: ATCC 10145, 24 h
# Escherichia coli [6] = assay: Antibacterial activity against Escherichia coli ATCC 11775 assessed as diamater of growth inhibition zone after 24 hr by agar cup diffusion method; further: test concentration or dose not given here
# Bacillus subtilis [7] = assay: Antibacterial activity against Bacillus subtilis ATCC 6633 assessed as growth inhibition after 24 hr by two fold serial dilution method; details: ATCC 6633, 24 h
# Staphylococcus aureus [8] = assay: Antibacterial activity against Staphylococcus aureus DSM 1104 assessed as growth inhibition after 24 hr; details: DSM 1104, 24 h
# Bacillus subtilis [9] = assay: Antibacterial activity against Bacillus subtilis ATCC 6633 assessed as growth inhibition after 24 hr; details: ATCC 6633, 24 h
# Staphylococcus aureus [10] = assay: Antibacterial activity against Staphylococcus aureus DSM 1104 assessed as diamater of growth inhibition zone after 24 hr by agar cup diffusion method; further: test concentration or dose not given here
# Pseudomonas aeruginosa [11] = assay: Antibacterial activity against Pseudomonas aeruginosa ATCC 10145 assessed as growth inhibition after 24 hr; details: ATCC 10145, 24 h
# Pseudomonas aeruginosa [12] = assay: Antibacterial activity against Pseudomonas aeruginosa ATCC 10145 assessed as diamater of growth inhibition zone after 24 hr by agar cup diffusion method; further: test concentration or dose not given here
# Staphylococcus aureus [13] = assay: Antibacterial activity against Staphylococcus aureus DSM 1104 assessed as growth inhibition after 24 hr by two fold serial dilution method; details: DSM 1104, 24 h
# Escherichia coli [14] = assay: Antibacterial activity against Escherichia coli ATCC 11775 assessed as growth inhibition after 24 hr by two-fold serial dilution method; details: ATCC 11775, 24 h
# Bacillus subtilis [15] = assay: Antibacterial activity against Bacillus subtilis ATCC 6633 assessed as diamater of growth inhibition zone after 24 hr by agar cup diffusion method; further: test concentration or dose not given here
Compound,MIC (Candida albicans [1]) [µg/mL],MIC (Pseudomonas aeruginosa [5]) [µg/mL],MIC (Bacillus subtilis [7]) [µg/mL],MIC (Staphylococcus aureus [13]) [µg/mL],MIC (Escherichia coli [14]) [µg/mL],MFC (Candida albicans [2]) [µg/mL],MBC (Escherichia coli [3]) [µg/mL],diameter of the inhibition zone (DIZ) (Candida albicans [4]) [mm],diameter of the inhibition zone (DIZ) (Escherichia coli [6]) [mm],MBC (Staphylococcus aureus [8]) [µg/mL],MBC (Bacillus subtilis [9]) [µg/mL],diameter of the inhibition zone (DIZ) (Staphylococcus aureus [10]) [mm],MBC (Pseudomonas aeruginosa [11]) [µg/mL],diameter of the inhibition zone (DIZ) (Pseudomonas aeruginosa [12]) [mm],diameter of the inhibition zone (DIZ) (Bacillus subtilis [15]) [mm]
COc1ccc(/C=N/N=c2\scc(C3=CC(=O)C=CC3=O)n2-c2ccc(Cl)cc2)cc1O,12.5,50,25,50,25,25,50,15,14,50,50,13,50,14,14
COc1ccc(OC)c(/C=N/N=c2\scc(C3=CC(=O)C=CC3=O)n2-c2ccc(C)cc2)c1,25,25,12.5,12.5,25,50,50,13,14,25,25,16,50,14,15
Clc1ccccc1C(c1ccccc1)(c1ccccc1)n1ccnc1 [CLOTRIMAZOLE],5,–,–,–,–,–,–,–,–,–,–,–,–,–,–
COc1cc(/C=N/N=c2\scc(-c3cc(O)ccc3O)n2-c2ccc(Cl)cc2)ccc1O,100,100,50,50,100,100,100,14,15,50,50,16,100,14,16
CC1(C)S[C@@H]2[C@H](NC(=O)[C@H](N)c3ccccc3)C(=O)N2[C@H]1C(=O)O.O.O.O [AMPICILLIN TRIHYDRATE],–,50,12.5,5,10,–,–,–,–,–,–,–,–,–,–

# Further molecules by falling MIC (Candida albicans [1]), results first:
MIC (Candida albicans [1]) [µg/mL],MIC (Pseudomonas aeruginosa [5]) [µg/mL],MIC (Bacillus subtilis [7]) [µg/mL],MIC (Staphylococcus aureus [13]) [µg/mL],MIC (Escherichia coli [14]) [µg/mL],Compound,MFC (Candida albicans [2]) [µg/mL],MBC (Escherichia coli [3]) [µg/mL],diameter of the inhibition zone (DIZ) (Candida albicans [4]) [mm],diameter of the inhibition zone (DIZ) (Escherichia coli [6]) [mm],MBC (Staphylococcus aureus [8]) [µg/mL],MBC (Bacillus subtilis [9]) [µg/mL],diameter of the inhibition zone (DIZ) (Staphylococcus aureus [10]) [mm],MBC (Pseudomonas aeruginosa [11]) [µg/mL],diameter of the inhibition zone (DIZ) (Pseudomonas aeruginosa [12]) [mm],diameter of the inhibition zone (DIZ) (Bacillus subtilis [15]) [mm]
50,100,100,25,100,COc1ccc(OC)c(/C=N/N=c2\scc(C3=CC(=O)C=CC3=O)n2-c2ccc(Cl)cc2)c1,100,100,14,13,50,100,14,100,16,14
50,50,50,25,50,COc1cc(/C=N/N=c2\scc(-c3cc(O)ccc3O)n2-c2ccc(C)cc2)ccc1O,50,100,12,14,50,50,15,100,16,15
25,100,50,25,100,COc1ccc(/C=N/N=c2\scc(-c3cc(O)ccc3O)n2-c2ccc(Cl)cc2)cc1O,50,100,12,13,50,100,14,100,14,14
